# Laboratory results reported in ChEMBL document CHEMBL6134925, “Novel Pyrrolidinone Urea as FPR2 Agonists for Treating Atherosclerosis and Heart Failure” (ACS Med Chem Lett, 2025).
# Biological target: T1, N-formyl peptide receptor 2 (Homo sapiens, UniProt P25090)
# T1 sequence (P25090 whole entry): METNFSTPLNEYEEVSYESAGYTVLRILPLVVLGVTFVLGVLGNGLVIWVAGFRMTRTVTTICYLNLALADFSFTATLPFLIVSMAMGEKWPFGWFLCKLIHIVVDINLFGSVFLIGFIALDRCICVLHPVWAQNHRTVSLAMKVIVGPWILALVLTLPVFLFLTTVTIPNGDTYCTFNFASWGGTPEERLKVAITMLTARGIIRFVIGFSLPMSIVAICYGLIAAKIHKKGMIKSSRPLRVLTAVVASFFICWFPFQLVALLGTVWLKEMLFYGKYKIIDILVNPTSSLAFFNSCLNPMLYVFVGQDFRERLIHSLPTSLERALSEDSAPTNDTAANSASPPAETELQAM
# Assay: Agonist activity at human FPR2 receptor expressed in CHO cells assessed as forskolin/IBMX-induced intracellular cAMP level incubated for 30 mins by HTRF HiRange cAMP assay
# Type: functional, cell-based
row,EC50 [nM],Compound
1,0.21,CN(C)[C@@H]1CCN(c2ccc(N3CC[C@@H](NC(=O)Nc4ccc(C(F)(F)F)cc4)C3=O)c(F)c2F)C1
2,4.4,O=C(Nc1ccc(Cl)cc1F)NC1CCN(c2c(F)cc(N3CCCS3(=O)=O)cc2F)C1=O (stereo unspecified)
3,0.27,CN(CCO)[C@@H]1CCN(c2ccc(N3CCC(NC(=O)Nc4ccc(Cl)cc4)C3=O)c(F)c2F)C1 (stereo partly specified)
4,0.19,CN(C)[C@@H]1CCN(c2ccc(N3CC[C@@H](NC(=O)Nc4ccc(Cl)cc4)C3=O)c(F)c2F)C1
5,7.2,O=C(Nc1ccc(C(F)(F)F)cc1F)NC1CCN(c2c(F)cc(N3CCCS3(=O)=O)cc2F)C1=O (stereo unspecified)
6,5.6,CN[C@@H]1CCN(c2ccc(N3CCC(NC(=O)Nc4ccc(Cl)cc4)C3=O)c(F)c2F)C1 (stereo partly specified)
